From ChEMBL document CHEMBL4229330, “Synthesis and evaluation of C2 functionalized analogs of the α-tubulin-binding natural product pironetin” (Bioorg Med Chem Lett, 2018)

Legend:
Type in all cases: cell-based
A2780 [1] = assay: Binding affinity to alpha tubulin in human A2780 cells assessed as disruption of tubulin polymerization by measuring cell proliferation at higher concentration after 48 hrs by CellTiter non-radioactive assay relative to control
A2780 [2] = assay: Binding affinity to alpha tubulin in human A2780 cells assessed as disruption of tubulin polymerization by measuring reduction in cell proliferation after 48 hrs by CellTiter non-radioactive assay
Homo sapiens = species on record: Homo sapiens; assay: Binding affinity to alpha tubulin in human OVCAR5 cells assessed as disruption of tubulin polymerization by measuring reduction in cell proliferation after 48 hrs by CellTiter non-radioactive assay

Row | SMILES | GI50 (A2780 [2]) | Activity (A2780 [1]) | GI50 (Homo sapiens)
1 | C/C=C/C[C@H](C)[C@@H](OC)[C@@H](C)[C@H](O)C[C@H]1OC(=O)C=C[C@H]1CC | 0.0243 µM | 10 to 20% | 0.0144 µM
2 | C/C=C/C[C@H](C)[C@@H](OC)[C@@H](C)[C@H](O)C[C@H]1OC(=O)C(C)=C[C@H]1CC | 10.2 µM | 10 to 20% | 3.36 µM
3 | C/C=C/C[C@H](C)[C@@H](OC)[C@@H](C)[C@H](O)C[C@H]1OC(=O)C(Cl)=C[C@H]1CC | 4.48 µM | 10 to 20% | 1.08 µM
4 | C/C=C/C[C@H](C)[C@@H](OC)[C@@H](C)[C@H](O)C[C@H]1OC(=O)C(F)=C[C@H]1CC | 5.11 µM | 10 to 20% | 3.24 µM

Now from value to compound, other results behind:

Row | GI50 (A2780 [2]) | SMILES | Activity (A2780 [1]) | GI50 (Homo sapiens)
5 | 0.901 µM | C/C=C/C[C@H](C)[C@@H](OC)[C@@H](C)[C@H](O)C[C@H]1OC(=O)C(Br)=C[C@H]1CC | < 10% | 0.0449 to 26.2 µM
6 | 0.00753 µM | CC(=O)O[C@H]1C(=O)[C@@]2(C)[C@H]([C@H](OC(=O)c3ccccc3)[C@]3(O)C[C@H](OC(=O)[C@H](O)[C@@H](NC(=O)c4ccccc4)c4ccccc4)C(C)=C1C3(C)C)[C@]1(OC(C)=O)CO[C@@H]1C[C@@H]2O | 10 to 20% | 0.021 µM
7 | > 50 µM | C/C=C/C[C@H](C)[C@@H](OC)[C@@H](C)[C@H](O)C[C@H]1OC(=O)C(c2ccccc2)=C[C@H]1CC | 10 to 20% | > 50 µM
